Measured values taken from ChEMBL document CHEMBL5579832, “Design, synthesis, and biological evaluation of pyrido[2,3-d]pyrimidin-7(8H)-one derivatives as potent USP1 inhibitors” (Eur J Med Chem, 2024).
The source made the active and inactive calls. The calls are words filed in the database; no cut-off is given here.

Key:
[1] = tested on: Olaparib-resistant MDA-MB-436; experiment: Inhibition of colony formation in human Olaparib-resistant MDA-MB-436 cell at 100 nM measured after 7 days in the presence of olaparib by SRB staining based assay relative to control; format: functional; details: Olaparib-resistant MDA-MB-436, 168 h, time 7 day
[2] = tested on: Olaparib-resistant MDA-MB-436; experiment: Induction of cell cycle arrest in human Olaparib-resistant MDA-MB-436 cell assessed as accumulation of cells in G2/M phase at 1 uM incubated for 24 hrs in the presence of olaparib by PI staining based flow cytometry analysis; format: functional
[3] = target: T1, Ubiquitin carboxyl-terminal hydrolase 1/WD repeat-containing protein 48 (Homo sapiens) (UniProt O94782+Q8TAF3); experiment: Non competitive inhibition of USP1/UAF1 complex (unknown origin) using Ub-7-amido-4-methylcoumarin as substrate at 0 to 200 nM incubated for 120 mins by Lineweaver-burk plot analysis; format: protein-complex assay; details: dose 0-200 nM
[4] = tested on: NCI-H1299; experiment: Inhibition of colony formation in human NCI-H1299 cells at 0.5 uM measured after 7 days by SRB staining based assay relative to control; format: functional; details: NCI-H1299, 168 h, time 7 day
[5] = Tmax in male ICR mouse at 10 mg/kg, po administered as single dose and measured after 24 hrs; format: ADME, organism-based; details: in vivo
[6] = target: T1, Ubiquitin carboxyl-terminal hydrolase 1/WD repeat-containing protein 48 (Homo sapiens); experiment: Inhibition of USP1/UAF1 in human NCI-H1299 cells assessed as increase in Ub-PCNA levels at 20 nM incubated for 24 hrs by Western blot analysis; format: cell-based
[7] = target: T1, Ubiquitin carboxyl-terminal hydrolase 1/WD repeat-containing protein 48 (Homo sapiens); experiment: Inhibition of USP1/UAF1 in human Olaparib-resistant MDA-MB-436 cell assessed as increase in Ub-PCNA level at 20 nM incubated for 24 hrs by Western blot analysis; format: cell-based
[8] = target: T2, Ubiquitin carboxyl-terminal hydrolase 8 (Homo sapiens) (UniProt P40818); experiment: Inhibition of recombinant human 6His-tagged USP8 using diubiquitin as a substrate at 0 to 10 uM preincubated for 15 mins followed by substrate addition and measured after 2 hrs by SDS-PAGE analysis; details: dose 0-10 µM, time 135.0 min
T2 sequence (whole entry): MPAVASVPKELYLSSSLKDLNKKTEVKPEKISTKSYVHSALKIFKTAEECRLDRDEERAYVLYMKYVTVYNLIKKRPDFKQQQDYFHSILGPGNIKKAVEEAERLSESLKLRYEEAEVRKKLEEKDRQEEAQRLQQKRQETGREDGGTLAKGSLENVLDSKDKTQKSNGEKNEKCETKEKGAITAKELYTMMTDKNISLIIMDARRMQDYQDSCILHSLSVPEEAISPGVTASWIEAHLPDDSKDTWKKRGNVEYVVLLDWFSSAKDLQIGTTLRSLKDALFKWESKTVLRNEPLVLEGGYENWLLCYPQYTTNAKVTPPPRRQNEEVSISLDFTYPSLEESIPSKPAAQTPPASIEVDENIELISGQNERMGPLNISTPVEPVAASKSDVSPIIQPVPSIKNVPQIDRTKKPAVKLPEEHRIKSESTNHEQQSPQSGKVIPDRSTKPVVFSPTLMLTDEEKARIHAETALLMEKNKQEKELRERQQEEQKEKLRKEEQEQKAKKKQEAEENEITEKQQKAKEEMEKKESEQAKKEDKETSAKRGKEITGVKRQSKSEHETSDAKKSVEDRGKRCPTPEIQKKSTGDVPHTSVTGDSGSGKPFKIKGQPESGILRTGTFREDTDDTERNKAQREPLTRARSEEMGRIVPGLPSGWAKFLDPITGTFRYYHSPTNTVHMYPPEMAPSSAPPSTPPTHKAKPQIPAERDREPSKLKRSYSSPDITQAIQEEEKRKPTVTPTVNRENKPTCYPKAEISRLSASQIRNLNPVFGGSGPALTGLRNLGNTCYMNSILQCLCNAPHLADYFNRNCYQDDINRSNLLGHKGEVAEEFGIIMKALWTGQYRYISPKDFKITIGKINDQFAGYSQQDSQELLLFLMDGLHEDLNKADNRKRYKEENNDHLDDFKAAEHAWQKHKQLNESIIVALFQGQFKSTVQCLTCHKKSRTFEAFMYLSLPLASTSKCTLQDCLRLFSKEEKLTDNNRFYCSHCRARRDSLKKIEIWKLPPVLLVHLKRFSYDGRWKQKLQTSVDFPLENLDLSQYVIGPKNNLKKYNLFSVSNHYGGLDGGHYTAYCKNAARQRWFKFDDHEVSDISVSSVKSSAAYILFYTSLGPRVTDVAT

[9] = tested on: Olaparib-resistant MDA-MB-436; experiment: Induction of cell cycle arrest in human Olaparib-resistant MDA-MB-436 cell assessed as accumulation of cells in S phase at 1 uM incubated for 24 hrs in the presence of olaparib by PI staining based flow cytometry analysis; format: functional
[10] = AUC (0 to t) in male ICR mouse at 10 mg/kg, po administered as single dose and measured after 24 hrs; format: ADME, organism-based; details: in vivo
[11] = target: T1, Ubiquitin carboxyl-terminal hydrolase 1/WD repeat-containing protein 48 (Homo sapiens); experiment: Inhibition of recombinant human 6His-tagged USP1-6His-tagged UAF1 complex using diubiquitin as a substrate assessed as inhibiting the cleavage of K63-linked di-Ub at 0 to 10 uM preincubated for 15 mins followed by substrate addition and measured after 2 hrs by SDS-PAGE analysis; format: protein-complex assay; details: dose 0-10 µM, time 135.0 min
[12] = target: T1, Ubiquitin carboxyl-terminal hydrolase 1/WD repeat-containing protein 48 (Homo sapiens); details: NCI-H1299, dose 20-500 nM, time 24.0 hrs

COc1ncnc(C2CC2)c1-c1ncc2ccc(=O)n(Cc3ccc(-c4nc(C(F)(F)F)cn4C(C)C)cc3)c2n1
inhibition at 0.1 µM [1]: 50%
Activity [2]: Active
inhibition [3]: Active
inhibition at 0.5 µM [4]: 70%
Tmax [5]: 15 min
Activity [6]: Active
inhibition [7]: Active
inhibition [8]: inactive
Activity [9]: Active
AUC(0-t) at 24 h [10]: 35800 ng·h/mL
inhibition [11]: Active
inhibition [12]: Dose-Dependent Effect
